This is an account of results in US20230143604A1, “QW DOSING OF GIP RECEPTOR AGONIST PEPTIDE COMPOUNDS AND USES THEREOF” (TAKEDA PHARMACEUTICAL COMPANY LIMITED, priority 2020, published 2023).

Starred links: 1 amine or outer side, 2 acyl side, 3 side chain; linkers in the order of their positions; H or OH if unused. Non-standard residues stand in square brackets, D forms with d. Residues, ends and D or L forms follow the SMILES beside them. Groups on a side chain read outwards from the residue. *: point of attachment. C18 diacid = O=C(O)CCCCCCCCCCCCCCCCC(=O)*; γGlu = O=C(O)[C@H](CCC(=O)[*:2])N[*:1]; NMeY = CN[C@@H](Cc1ccc(O)cc1)C(=O)O; AEEA = NCCOCCOCC(=O)O; Aib = CC(C)(N)C(=O)O

The series in a line: physchem. The procedure:
Solubility of the GIPR peptides may be determined by dissolution in a phosphate buffer followed by quantitation using liquid chromatography, for example, High Performance Liquid Chromatogry (HPLC). An illustrative method is provided. For determination of the solubility of the GIPr agonist peptides, 3 mg of peptides are weighted out in a small glass vial. 100 μL of 200 mM Phosphate buffer pH 7.4 are added and the vial is sonicated/votexed as necessary for a maximum of 1 min. […] If insoluble material is observed in the tube the addition of 100 μL of buffer and mixing is repeated until complete dissolution.
3 mg of peptides are weighted out in a small glass vial. 100 uL of 200 mM Phosphate buffer pH 7.4 are added and the vial is sonicated/votexed as necessary for a maximum of 1 min. […] If insoluble material is observed in the tube the addition of 100 uL of buffer and mixing is repeated until complete dissolution.

On to `CC[C@H](C)[C@H](NC(=O)[C@H](CO)NC(=O)[C@H](Cc1ccc(O)cc1)NC(=O)[C@H](CC(=O)O)NC(=O)[C@H](CO)NC(=O)[C@@H](NC(=O)[C@H](Cc1ccccc1)NC(=O)[C@@H](NC(=O)CNC(=O)[C@H](CCC(=O)O)NC(=O)C(C)(C)NC(=O)[C@H](Cc1ccc(O)cc1)NC)[C@@H](C)O)[C@@H](C)CC)C(=O)N[C@@H](C)C(=O)N[C@@H](CC(C)C)C(=O)N[C@@H](CC(=O)O)C(=O)N[C@@H](CCCNC(=N)N)C(=O)NC(C)(C)C(=O)N[C@@H](CCCCNC(=O)COCCOCCNC(=O)COCCOCCNC(=O)CC[C@H](NC(=O)CC[C@H](NC(=O)CCCCCCCCCCCCCCCCC(=O)O)C(=O)O)C(=O)O)C(=O)N[C@@H](CCC(N)=O)C(=O)NC(C)(C)C(=O)N[C@@H](CC(N)=O)C(=O)N[C@@H](Cc1ccccc1)C(=O)N[C@H](C(=O)N[C@@H](CC(N)=O)C(=O)N[C@@H](Cc1c[nH]c2ccccc12)C(=O)N[C@@H](CC(C)C)C(=O)N[C@@H](CC(C)C)C(=O)N[C@@H](C)C(=O)N[C@@H](CCC(N)=O)C(=O)N[C@@H](CO)C(=O)NCC(=O)O)C(C)C` [Compound 46] (H-[NMeY][Aib]EGTFISDYSIALDR[Aib]K([AEEA-AEEA-γGlu-γGlu-C18 diacid])Q[Aib]NFVNWLLAQSG-OH), for which the solubility by setting is: (pH 7.4) ≥ 15 mg/mL; (pH 7.4, aqueous buffer) ≥ 30 mg/mL. In the same order, the values of `CC[C@H](C)[C@H](NC(=O)[C@H](CO)NC(=O)[C@H](Cc1ccc(O)cc1)NC(=O)[C@H](CC(=O)O)NC(=O)[C@H](CO)NC(=O)[C@@H](NC(=O)[C@H](Cc1ccccc1)NC(=O)[C@@H](NC(=O)CNC(=O)[C@H](CCC(=O)O)NC(=O)C(C)(C)NC(=O)[C@@H](N)Cc1ccc(O)cc1)[C@@H](C)O)[C@@H](C)CC)C(=O)N[C@@H](C)C(=O)NC(C)(C)C(=O)N[C@@H](CC(=O)O)C(=O)N[C@@H](CCCCN)C(=O)N[C@@H](C)C(=O)N[C@@H](CCCCNC(=O)COCCOCCNC(=O)COCCOCCNC(=O)CC[C@H](NC(=O)CCCCCCCCCCCCCCCCC(=O)O)C(=O)O)C(=O)N[C@@H](CCC(N)=O)C(=O)N[C@@H](CCC(N)=O)C(=O)N[C@@H](CC(=O)O)C(=O)N[C@@H](Cc1ccccc1)C(=O)N[C@H](C(=O)N[C@@H](CCC(=O)O)C(=O)N[C@@H](Cc1c[nH]c2ccccc12)C(=O)N[C@@H](CC(C)C)C(=O)N[C@@H](CC(C)C)C(=O)N[C@@H](C)C(=O)N[C@@H](CCC(N)=O)C(=O)N[C@@H](CCCNC(=N)N)C(=O)NCC(=O)O)C(C)C` [Compound 164] (H-Y[Aib]EGTFISDYSIA[Aib]DKAK([AEEA-AEEA-γGlu-C18 diacid])QQDFVEWLLAQRG-OH) are ≥ 15 mg/mL and ≥ 30 mg/mL. For the compound `CC[C@H](C)[C@H](NC(=O)[C@H](CO)NC(=O)[C@H](Cc1ccc(O)cc1)NC(=O)[C@H](CC(=O)O)NC(=O)[C@H](CO)NC(=O)[C@@H](NC(=O)[C@H](Cc1ccccc1)NC(=O)[C@@H](NC(=O)CNC(=O)[C@H](CCC(=O)O)NC(=O)C(C)(C)NC(=O)[C@H](Cc1ccc(O)cc1)NC)[C@@H](C)O)[C@@H](C)CC)C(=O)N[C@@H](C)C(=O)N[C@@H](CC(C)C)C(=O)N[C@@H](CC(=O)O)C(=O)N[C@@H](CCCNC(=N)N)C(=O)NC(C)(C)C(=O)N[C@@H](C)C(=O)N[C@@H](CCC(N)=O)C(=O)NC(C)(C)C(=O)N[C@@H](CCCCNC(=O)COCCOCCNC(=O)COCCOCCNC(=O)CC[C@H](NC(=O)CC[C@H](NC(=O)CCCCCCCCCCCCCCCCC(=O)O)C(=O)O)C(=O)O)C(=O)N[C@@H](Cc1ccccc1)C(=O)N[C@H](C(=O)N[C@@H](CC(N)=O)C(=O)N[C@@H](Cc1c[nH]c2ccccc12)C(=O)N[C@@H](CC(C)C)C(=O)N[C@@H](CC(C)C)C(=O)N[C@@H](C)C(=O)N[C@@H](CCC(N)=O)C(=O)N[C@@H](CCCNC(=N)N)C(N)=O)C(C)C` [Compound 269] (H-[NMeY][Aib]EGTFISDYSIALDR[Aib]AQ[Aib]K([AEEA-AEEA-γGlu-γGlu-C18 diacid])FVNWLLAQR-NH2), the solubility (pH 7.4, aqueous buffer) was ≥ 7.5 mg/mL.

One may read the solubility as the concentration that dissolves in the medium under given conditions. The low end stands for a poorly soluble substance, the high end for a readily soluble substance.
